Source: patent publication US6395740B1, “Calcitonin mimetics” (ZymoGenetics, Inc., priority 1997, dated 2002)

What was measured:
[1] = tested on: osteoclasts in PTH-treated mouse calvariae; assay: Calvaria histology: osteoclast number and size; type: cell-based; conditions: PTH 1-34 treated mouse calvariae
Excerpt: To confirm the findings in the calvarial bone resorption assay employing calcium release from culture mouse calvariae, selected bones were fixed in 10% neutral buffered formalin and demineralized in 5% formic acid with 5% formalin. The bones were dehydrated through an ascending series of ethanol concentrations, infiltrated in glycol methacrylate, and embedded using a JB-4 embedding kit (PolySciences, warrington, Pa.) (Liu et al., J. Bone Mineral Res. 5:973-82 (1990)). Cross sections of calvariae cut at 5 μm were obtained and stained for tartrate-resistant acid phosphatase (TRAP) activity and counterstained with merhyl green and thionin for cell morphology (Laiu et al., supra). Osteociasts were identified by TRAP stain, multinucleation, large cell size, and irregular cell shape. The number of osteoclasts were counted from endocranial and ectocranial bone surfaces and expressed as number/mm perimeter. The size of all the osteoclasts counted was also measured using a Bone Morphometry program (Liu et al., supra; Bain, et al., J. Bone Miner. Res. 8:435-42 (1993)). […]
Calcitonin mimetic compounds were evaluated in a similar fashion for their ability to suppress PTH-induced increases in osteoclast number and size. Cell toxicity (or death) was also evaluated by the appearance of pyknotic nuclei in a small number of bone cells. […]

[2] = tested on: PTH-induced bone resorption in mouse calvaria; assay: Calvarial assay to determine calcitonin escape; type: cell-based; conditions: for visual observation of the calvaria (resorption): final time point (98 hours)
Experimental: Calvaria from 4-day old neonatal CD-1 mice (pregnant mice received from Charles River Laboratories) were trimmed with fine-tipped scissors to leave the parietal regions, including the sagittal suture. These trimmed bones were placed singly per well into 6-well culture cluster plates (Costar) with 1 mL/well of growth medium, Basel Medium (Eagle's with Earle's salts (GIBCO BRL, Gaithersburg, Md.)) containing 4.5 g/L glucose, 0.29 mg/mL L-glutamine, 1 mM sodium pyruvate, 15% heat-inactivated horse serum, antibiotics (penicillin-G 50 μg/mL, streptomycin 50 μg/mL, and neomycin 100 μg/mL) and containing 5 nM parathyroid hormone (PTH) 1-34 (Sigma), and rocked gently (RedRocker™) at 37° C. in a 5% CO2 humidified incubator for 17.5 hours preincubation. The concentration of PTH was chosen to insure maximum resorption. Calvaria designated as controls were pre-incubated in media without PTH.
Following preincubation, medium was removed and replaced with 1 mL/well of growth medium, as above, containing 20 or 30 μg/mL of the calcitonin mimetic 850-0231 in DMSO (final assay concentration of DMSO less than or equal to 1%), and compared with human calcitonin (hCT) tested at 0.5, 1.0, 5.0, […] All control wells contained a final assay concentration of DMSO equal to that present in the calcitonin mimetic treated wells.
Five bones were included in each sample group. Bones were incubated for a total of 98 hours. Time points were taken at 4, 8, 11, 24, 50.5, 72.5 and 98 hours. At each time point the media containing PTH was removed and fresh dilutions of compound in media were added to the calvaria. After the media was removed, total calcium measurements were made using a Nova 7/7+7 Electrolyte Analyzed (Nova Biomedical) according to the manufacturer's specifications. Induction of bone resorption by PTH is seen as an increase in the concentration of calcium in the growth medium due to degradation of the bone matrix.
A second calvaria bone resorption/escape assay was performed as described above with time points at 4, 8, 12, 16, 24, 49 and 73 hours. […] Histology was done on the PTH-treated and the 30 μg/mL calcitonin mimetic-treated calvaria.
A third calvaria bone resorption/escape assay was performed as described above with the following modifications. The calcitonin mimetic was tested at 5, 10 and 20 μg/mL. PTH was used at 10 nM to insure maximal resorption, hCT was tested at 2 nM and 8 nM and sCT was not included. Calvaria were pretreated with PTH for 19.75 hours. BrdU (bromodeoxyuridine, final concentration 10 μM) was added to the growth media for the final 17.5 hours, to identify proliferating cells. The lack of toxicity of 850-0231 will be verified by quartitating the number of proliferating BudU cells in histological sections of the calvaria. Time points were taken at 4, 8, 11, 24.5, 48 and 77 hours. A Novo CRT 10+ electrolyte analyzer (Nova Biomedical) was used to analyze the time point samples.
At the final time point, visual observations were made and photos taken to note the extent of resorption, and migration from the calvarial cells as a measure of toxicity. Again, human calcitonin lost its inhibitory effect between hours 11 and 24 (Table 5). The calvaria treated with the mimetic at 5 and 10 μg/mL also lost inhibitory effect between 11 and 24 hours.

[3] = Induction of hypocalcemia in rats; type: in vivo; conditions: weanling male rats, tail vein, 0.5, 2.5, 5, 50 and 100 ng/rat, one hour
Experimental: This assay is based on the in vivo acute effect of calcitonin on osteoclasts, which causes rapid retraction of osteoclass from bone surface (typically within 30 minutes) and which results in decreased bone resorption. See Mills, et al., in Endocrinology 1971—Proceedings of the Third International Symposium, Taylor (ed), Heinemann Medical, London, pp. 79-88 (1972) and Singer, et al., Clin. Endocrinol. 5(Supp):333s-340s (1976); the disclosures of which are incorporated herein by reference. The assay method was modified from the method described by Sturtridge and Kumar, Lancet 545:725-6, 1968, the disclosure of which is incorporated herein by reference.
For the assay of hypocalcemic activity, weanling male Holtzman Sprague-Dawley rats (22 days old) are infused with vehicle (PBS with 1 mM HCl and 0.1% BSA), calcitonin or calcitonin mimetics through the tail vein. One hour later, blood samples are collected by orbital sinus puncture to determine serum levels of calcium. A decrease in serum calcium indicates a hypocalcemic response. The hypocalcemic response is dose-dependent as determined using salmon calcitonin (0.5, 2.5, 5, 50 and 100 ng/rat) in this model.

[4] = TPTX rats, co-administration with PTH, two days; cited from earlier work

Substance: human calcitonin
- PTH-induced increase in number and size of osteoclasts [1]: suppressed
- time after which inhibitory effect on resorption was lost (escape) ([2]; first assay, PTH 5 nM): approximately 24 hours
- Cumulative Total Calcium ([2]; first assay, PTH 5 nM, hCT 10 nM, 4 hours): 0.02 mg %
- Cumulative Total Calcium ([2]; first assay, PTH 5 nM, hCT 10 nM, 8 hours): 0.02 mg %
- Cumulative Total Calcium ([2]; first assay, PTH 5 nM, hCT 10 nM, 11 hours): −0.02 mg %
- Cumulative Total Calcium ([2]; first assay, PTH 5 nM, hCT 10 nM, 24 hours): 0.98 mg %
- Cumulative Total Calcium ([2]; first assay, PTH 5 nM, hCT 10 nM, 50.5 hours): 4.96 mg %
- Cumulative Total Calcium ([2]; first assay, PTH 5 nM, hCT 10 nM, 72.5 hours): 8.24 mg %
- Cumulative Total Calcium ([2]; first assay, PTH 5 nM, hCT 10 nM, 98 hours): 12.26 mg %
- visual observation of the calvaria (resorption) ([2]; first assay): less resorption
- Cumulative Total Calcium ([2]; second assay, PTH 5 nM, hCT 10 nM, 4 hours): 0.10 mg %
- Cumulative Total Calcium ([2]; second assay, PTH 5 nM, hCT 10 nM, 8 hours): −0.04 mg %
- Cumulative Total Calcium ([2]; second assay, PTH 5 nM, hCT 10 nM, 12 hours): −0.06 mg %
- Cumulative Total Calcium ([2]; second assay, PTH 5 nM, hCT 10 nM, 16 hours): 0.12 mg %
- Cumulative Total Calcium ([2]; second assay, PTH 5 nM, hCT 10 nM, 24 hours): 0.92 mg %
- Cumulative Total Calcium ([2]; second assay, PTH 5 nM, hCT 10 nM, 49 hours): 5.70 mg %
- Cumulative Total Calcium ([2]; second assay, PTH 5 nM, hCT 10 nM, 73 hours): 10.60 mg %
- Cumulative Total Calcium ([2]; third assay, PTH 10 nM, hCT 2 nM, 4 hours): 0.01 mg %
- Cumulative Total Calcium ([2]; third assay, PTH 10 nM, hCT 2 nM, 8 hours): 0.10 mg %
- Cumulative Total Calcium ([2]; third assay, PTH 10 nM, hCT 2 nM, 11 hours): 0.10 mg %
- Cumulative Total Calcium ([2]; third assay, PTH 10 nM, hCT 2 nM, 24.5 hours): 1.22 mg %
- Cumulative Total Calcium ([2]; third assay, PTH 10 nM, hCT 2 nM, 48 hours): 4.88 mg %
- Cumulative Total Calcium ([2]; third assay, PTH 10 nM, hCT 2 nM, 77 hours): 9.55 mg %
- Cumulative Total Calcium ([2]; third assay, PTH 10 nM, hCT 8 nM, 4 hours): 0.08 mg %
- Cumulative Total Calcium ([2]; third assay, PTH 10 nM, hCT 8 nM, 8 hours): 0.24 mg %
- Cumulative Total Calcium ([2]; third assay, PTH 10 nM, hCT 8 nM, 11 hours): 0.27 mg %
- Cumulative Total Calcium ([2]; third assay, PTH 10 nM, hCT 8 nM, 24.5 hours): 1.45 mg %
- Cumulative Total Calcium ([2]; third assay, PTH 10 nM, hCT 8 nM, 48 hours): 4.60 mg %
- Cumulative Total Calcium ([2]; third assay, PTH 10 nM, hCT 8 nM, 77 hours): 9.74 mg %

Substance: salmon calcitonin
- time after which inhibitory effect on resorption was lost (escape) ([2]; first assay, PTH 5 nM): approximately 24 hours
- Cumulative Total Calcium ([2]; first assay, PTH 5 nM, sCT 0.2 nM, 4 hours): 0.10 mg %
- Cumulative Total Calcium ([2]; first assay, PTH 5 nM, sCT 0.2 nM, 8 hours): 0.18 mg %
- Cumulative Total Calcium ([2]; first assay, PTH 5 nM, sCT 0.2 nM, 11 hours): 0.34 mg %
- Cumulative Total Calcium ([2]; first assay, PTH 5 nM, sCT 0.2 nM, 24 hours): 1.76 mg %
- Cumulative Total Calcium ([2]; first assay, PTH 5 nM, sCT 0.2 nM, 50.5 hours): 6.12 mg %
- Cumulative Total Calcium ([2]; first assay, PTH 5 nM, sCT 0.2 nM, 72.5 hours): 9.88 mg %
- Cumulative Total Calcium ([2]; first assay, PTH 5 nM, sCT 0.2 nM, 98 hours): 13.22 mg %
- visual observation of the calvaria (resorption) ([2]; first assay): less resorption
- Cumulative Total Calcium ([2]; second assay, PTH 5 nM, sCT 1 nM, 4 hours): −0.02 mg %
- Cumulative Total Calcium ([2]; second assay, PTH 5 nM, sCT 1 nM, 8 hours): −0.16 mg %
- Cumulative Total Calcium ([2]; second assay, PTH 5 nM, sCT 1 nM, 12 hours): −0.20 mg %
- Cumulative Total Calcium ([2]; second assay, PTH 5 nM, sCT 1 nM, 16 hours): 0.08 mg %
- Cumulative Total Calcium ([2]; second assay, PTH 5 nM, sCT 1 nM, 24 hours): 0.92 mg %
- Cumulative Total Calcium ([2]; second assay, PTH 5 nM, sCT 1 nM, 49 hours): 6.02 mg %
- Cumulative Total Calcium ([2]; second assay, PTH 5 nM, sCT 1 nM, 73 hours): 11.56 mg %
- hypocalcemic response (decrease in serum calcium) [3]: dose-dependent
- PTH-induced serum, bone and kidney changes [4]: attenuated
